Reference: US5908868A, “Retinol derivatives useful for enhancing immune response” (priority 1995, dated 1999)
Entries after “also recorded” stand apart in the source; their conditions may differ.

B1: IL-1: Human recombinant IL-1-α (protein, UniProt P01583 113-271, looked up)
Interleukin-1 alpha: SAPFSFLSNVKYNFMRIIKYEFILNDALNQSIIRANDQYLTAAALHNLDEAVKFDMGAYKSSKDDAKITVILRISKTQLYVTAQDEDQPVLLKEMPEIPKTITGSETNLLFFWETHGTKNYFTSVAHPNLFIATKQDYWVCLAGGPPSITDFQILENQA
B2: IL-4: murine rIL-4 (protein, UniProt P07750 21-140, looked up)
Interleukin-4: HIHGCDKNHLREIIGILNEVTGEGTPCTEMDVPNVLTATKNTTESELVCRASKVLRIFYLKHGKTPCLKKNSSVLMELQRLFRAFRCLDSSISCTMNESKSTSLKDFLESLKSIMQMDYS
B3: IFN-gamma: mouse recombinant IFN-gamma (protein, UniProt P01580 23-155, looked up)
Interferon gamma: HGTVIESLESLNNYFNSSGIDVEEKSLFLDIWRNWQKDGDMKILQSQIISFYLRLFEVLKDNQAISNNISVIESHLITTFFSNSKAKKDAFMSIAKFEVNNPQVQRQAFNELIRVVHQLLPESSLRKRKRSRC

Experiments:
[1] = test system: B lymphocytes; experiment: B cell growth/survival; type: cell-based; conditions: synthetic isomers
[2] = test system: T cells; experiment: T cell activation/proliferation; type: cell-based, murine; conditions: for activity in T cell activation relative to natural 13,14-DHR: synthetic isomers; for substitution for retinol in T cell activation: with mitogen/anti-CD3
Protocol: (§1) They were seeded into 96-well flat-bottom plates at varying cellular densities in a final volume of 100 μl. In control experiments, cells were cultured in medium containing 10% FCS or 3% human serum and 5×10^-5 M 2 ME. […] Cultures were carried out in duplicate. Plates were incubated at 37° C. in a humidified 5% CO2 atmosphere. Cellular proliferation was determined by [^3 H] thymidine uptake (0.5 uCi/well; New England Nuclear, Boston, Mass.) after the incubation times indicated for each experiment with a 4 hour labeling pulse. Cells were harvested onto glass filter and [^3 H]TdR incorporation was determined by liquid scintillation counting. The data presented are the means of duplicate or six replicate cultures. The restriction to duplicate measurements was necessary to conserve scarce 14HRR. […] Each experiment was repeated at least twice.

[3] = test system: thymocytes; experiment: Proliferation of anti-CD3e activated thymocytes in serum-free medium; type: cell-based, BALB/c mouse
Protocol: FIG. 14A: Purified BALB/c thymocytes were activated with immobilized anti-CD3e antibody and cultivated for four days in ITLB medium with or without retinol (3×10^-6 M), 14HRR (6×10^-7 M) (fresh 14HRR was added every 12 hours), human serum (3%) or FCS (10%) at the cellular densities shown. Proliferation was assayed by tritiated thymidine incorporation into cellular DNA. The SDs were below 20%.
FIG. 14B: BALB/c thymocytes (10^6 /ml) were added to microtiter plates coated with titrated amounts of anti-CD3e antibody with […] retinol or without, as indicated. Proliferation was measured in hexaduplicate wells on day 3 by ^3 H thymidine incorporation assay.
FIG. 14C: BALB/c thymocytes (3×10^6 /ml) were activated with anti-CD3e mAb as FIG. 1A. The total number of viable cells was determined by counting trypan blue-excluding cells, and those of blast cells by counting viable large cells in six replicate wells. Because of the relatively low cell density required in the culture (see FIG. 14A), the numbers reported for blast cells are best estimates.
Purified thymocytes (5×10^5 cells/well) were stimulated by TCR crosslinking with immobilized anti-CD3e antibody (FIG. 15A) or 0.4 μg/ml Con A (FIG. 15B) in serum-free ITLB medium. The indicated amounts of retinoids were added either once at the beginning of the experiment (marked as "1x") or every 12 hours thereafter (marked as "6x"). DNA synthesis was measured after 72 hours by tritiated thymidine uptake as described.
Purified thymocytes (10^5 cells/well) were activated with anti-CD3 antibody in ITLB medium with or without retinol (3×10^-6 M), 14HRR (6×10^-7, added every 12 hours or human serum (3%)). DNA synthesis was measured daily by a 4 hour pulse of tritiated thymidine. SDs were ≤12%.
Thymocytes (5×10^4 /well) were activated by immobilized anti-CD3 mAb in medium ITLB. Retinol (2×10^-6 M) was added at initiation of culture, or delayed by 12 hours and 24 hours, respectively, or omitted altogether. ^3 H thymidine pulses of 4 hours were used to measure DNA synthesis of hexaduplicate wells. (SDs were 20% or less.)
Thymuses of 3 to 6-week-old BALB/c mice were teased in serum-free RPMI medium supplemented with 1% BSA, 10^-6 M linoleic acid and antibiotics. Depletion of accessory cells was achieved by two cycles of complement-dependent lysis with a mixture of anti-IA^d (5 μg/ml) and anti-Itd (1:500 diluted ascites fluid). Briefly, cells were incubated on ice for 30 minutes with Ia antibodies, spun down, resuspended in 1:40 diluted rabbit complement, and incubated at 37° C. for 45 minutes. Incubations and two subsequent washes were carried out with RPMI medium containing 1% BSA. Cell viability was evaluated by trypan blue dye exclusion. To determine the extent of depletion of accessory cells, samples were stained with FITC-conjugated anti-Fc receptor antibody and analyzed by flow cytometry on a FACScan instrument (Becton Dickinson). No FcR-bearing cells were detected by this procedure.
Cells were cultured in serum-free medium, referred to as ITLB, containing RPMI 1640 supplemented with 8×10^-7 M insulin (5 μg/ml), 7×10^-8 M transferrin (5 μg/ml), 2×10^-6 M linoleic acid, 2×10^-6 M delipidated BSA (0.12 mg/ml), 2 mM L-glutamine, 1 mM sodium pyruvate and antibiotics. They were seeded into 96-well flat-bottom plates at varying cellular densities in a final volume of 100 μl. In control experiments, cells were cultured in medium containing 10% FCS or 3% human serum and 5×10^-5 M 2 ME. T cells and thymocytes were activated with immobilized, purified anti-mab CD3e or by the addition of Con A in the presence or absence of different concentrations of retinoids. Unless indicated otherwise, retinoids were replenished every 12 hours to maintain a reasonably constant concentration of these labile compounds in culture. […]

[4] = test system: B lymphocytes; conditions: previous analyses with B lymphocytes (33); cited from earlier work
[5] = test system: lymphoblastoid cells (LCL); conditions: serum-free medium; cited from earlier work
[6] = test system: thymocytes; experiment: Growth-stimulating effect of retinol on anti-CD3 activated thymocytes in the presence of interleukins; type: cell-based, BALB/c mouse; conditions: for substitution for retinol by lymphokines/cytokines: anti-CD3-activated thymocytes; for substitution for retinol by lymphokines/cytokines / CPM anti-CD3, no Retinol: no retinol; for CPM anti-CD3, no Retinol: 3 days
Protocol: as §1, with “Cells were cultured in serum-free medium, referred to as ITLB, containing RPMI 1640 supplemented with 8×10^-7 M insulin (5 μg/ml), 7×10^-8 M transferrin (5 μg/ml), 2×10^-6 M linoleic acid, 2×10^-6 M delipidated BSA (0.12 mg/ml), 2 mM L-glutamine, 1 mM sodium pyruvate and antibiotics. They” for “They”, “ME. T cells and thymocytes were activated with immobilized, purified anti-mab CD3e or by the addition of Con A in the presence or absence of different concentrations of retinoids. Unless indicated otherwise, retinoids were replenished every 12 hours to maintain a reasonably constant concentration of these labile compounds in culture.” for “ME.”
Proliferation of activated thymocytes in response to interleukins in presence and absence of retinol. Purified thymocytes (5×10^5 cells/well) were activated with immobilized anti-CD3 antibody in serum-free medium in the presence or absence of interleukins and retinol (3×10^-6 M). Proliferation was assayed after three days by tritiated thymidine incorporation.

[7] = test system: thymocytes; experiment: as above; type: cell-based, BALB/c mouse; conditions: 3 days

Molecule | activity in supporting B cell growth relative to natural 13,14-DHR [1] | activity in T cell activation relative to natural 13,14-DHR [2] | substitution for retinol in T cell activation [2] | substitution for retinol by lymphokines/cytokines [6] | CPM anti-CD3, no Retinol [6] | CPM anti-CD3, 10^-6 M Retinol [7] | other results
CC1=C(/C=C/C(C)=C\C=C\[C@@](C)(O)[C@H](O)CO)C(C)(C)CCC1 [9-cis-(13R, 14R)-DHR] | same activity | same activity | – | – | – | – | –
CC1=C(/C=C/C(C)=C\C=C\[C@](C)(O)[C@H](O)CO)C(C)(C)CCC1 [9-cis-(13S, 14R)-DHR] | same activity | same activity | – | – | – | – | –
CC1=C(/C=C/C(C)=C/C=C/C(C)=C\CO)C(C)(C)CCC1 [13-cis-retinol] | – | – | can substitute for retinol | – | – | – | effectiveness relative to all-trans retinol [3]: equally effective as all-trans retinol
CC1=C(/C=C/C(C)=C/C=C/[C@@](C)(O)[C@H](O)CO)C(C)(C)CCC1 [all-trans (13R, 14R)-DHR] | same activity | same activity | – | – | – | – | –
CC1=C(/C=C/C(C)=C/C=C/[C@](C)(O)[C@H](O)CO)C(C)(C)CCC1 [all-trans (13S, 14R)-DHR] | same activity | same activity | – | – | – | – | –
CC1=C(/C=C/C(C)=C/C=C/C(C)=C/C=O)C(C)(C)CCC1 [all-trans retinal] | – | – | can substitute for retinol | – | – | – | effectiveness relative to all-trans retinol [3]: equally effective as all-trans retinol; concentration at which activity was demonstrated [4]: 200 nM; support of growth of LCL [5]: support the growth of LCL
IL-6: hrIL-6 purchased from Boehringer Mannheim | – | – | – | None and none | 1,005 ± 815 CPM | 130,590 ± 25,803 CPM | –
TNF-alpha | – | – | cannot be satisfied | none | 464 ± 95 CPM | 122,905 ± 11,577 CPM | substitution for retinol by lymphokines/cytokines ([6]; listed as TNF-α): does not
B1 | – | – | – | None and none | 959 ± 30 CPM | 118,924 ± 3,051 CPM | –
B2 | – | – | – | None and none | 991 ± 105 CPM | 115,849 ± 20,630 CPM | –
B3 | – | – | can substitute for retinol | can circumvent the retinol requirement and initiate durable proliferation in the absence of retinol or 14HRR | 81,876 ± 11,866 CPM | 220,359 ± 27,726 CPM | substitution for retinol by lymphokines/cytokines ([6]; listed as interferon-gamma): can sustain thymocyte proliferation in the absence of retinol; also recorded: quite efficient in anti-CD3-mediated activation in the absence of retinol; synergy with retinol [6]: strong additive effects; synergy with retinol ([6]; listed as Interferon-gamma): clear additive effect with retinol
